The subject of one data set is Daphnia magna. As to conditions: chronic/long-term; duration: 21 days; reproduction.
The next data set deals with Colinus virginianus. The settings on record: reproduction developmental.
The test system of another data set is Oncorhynchus mykiss. As to conditions: acute; duration: 96 hours; mortality.
Another data set concerns Apis mellifera. The settings on record: acute; duration: 96 hours; dermal; mortality.
A further data set has as its system Bibionidae. The settings on record: chronic/long-term; duration: 28 days.
The next data set concerns Cyprinodon variegatus. As to conditions: acute; duration: 96 hours; mortality.
A further data set has as its system Tagia sp. The settings on record: acute; duration: 14 days; mortality.
A further data set concerns Pimephales promelas. As to conditions: chronic/long-term; duration: 272 days; growth.
The next data set deals with Typhlodromus pyri. Description: LR50; higher = less toxic. The settings on record: acute; duration: 7 days; mortality.

In brackets after ≈: the same amount, converted by molar mass.

The record followed here is EPA's ToxValDB 9.5 (doi:10.2903/j.efsa.2011.2087).

With `C#CCOS(=O)OC1CCCCC1Oc1ccc(C(C)(C)C)cc1` (stereo not drawn) [Propargite], the NOEC is 0.009 mg/L with Daphnia magna; 142 mg/kg-day in the data set with Colinus virginianus; 13.5 mg/kg-day with Anas platyrhynchos (reproductive); 0.32 mg/L in the data set on Bibionidae; 0.0057 mg/L in the data set with Pimephales promelas. The LC50 with Oncorhynchus mykiss is 0.043 µg/mL (≈ 0.123 µM); in the data set on Cyprinodon variegatus, 0.055 µg/mL (≈ 0.157 µM); in the data set with Tagia sp., 378 mg/kg. Also, the LD50 is 2640 mg/kg-day with Rattus norvegicus (acute, oral, mortality); 47.9 µg/piece with Apis mellifera; over 4640 mg/kg with Anas platyrhynchos (acute, oral, unspecified, mortality). The same compound registered an NOEL in the data set with Rattus norvegicus (chronic) of 6.3 mg/kg-day. Further, the LR50 in the data set with Typhlodromus pyri came out at 4.5 g/ha.
